Measured values published in paper PMC2628309 (Journal of the American Chemical Society, 2008).
Where two headings read alike, the source gives them in different places.

Key:
[1] = biological target: SH2 domain; conditions: validated SH2 domain ligand; cited from earlier work
[2] = biological target: T1, Src tyrosine kinase (Homo sapiens, UniProt P12931); assay: Src kinase inhibition; assay type: biochemical
[3] = biological target: T1, Src tyrosine kinase; conditions: cited from earlier work
[4] = Table 1, Src inhibitors, pre-photolysis

IC50 [2, 4] | Substance | other results
– | Ac-pTyrGluGluIle-amide | Kd [1]: 1000 to 5000 nM
220 ± 10 nM | Ba-EEEIFGE-II-Dap(Hna)-βA3-pYEEIEX [Compound 7] | –
7500 nM | Ba-EEEIFGE-III-Dap(Hna)-βA3-pY-III-EIEX [Compound 9] | –
– | Ba-EEEIFGEF-Dap(Hna)-βA3-pYEEIEX [Compound 1] | IC50 [3]: 36 ± 2 nM; Ki [3]: 26 ± 4 nM
115 ± 9 nM | Ba-EEEIFGEF-Dap(Hna)-βA-I-βA-pYEEIEX [Compound 4] | –
38 ± 4 nM | Ba-EEEIFGEF-Dap(Hna)-βA-II-βA-pYEEIEX [Compound 5] | –
1600 nM | Ba-EEEIFGEF-Dap(Hna)-βA-III-βA-pY-III-EIEX [Compound 10] | –
18 ± 5 nM | Ba-EEEIFGEF-Dap(Hna)-βA-III-βA-pYEEIEX [Compound 6] | Src kinase activity in the presence of inhibitor ([2]; 1.9 μM inhibitor, no irradiation): completely blocked; IC50 ([2]; in the presence of 320 μM Ac-pTyrGluGluIle-amide (SH2 ligand competition)): 325 ± 60 nM
56 ± 4 nM | Ba-EEEIFGEF-Dap(Hna)C-III-βA-pYEEIE-NH2 [Compound 11] | –
